Reference: BindingDB's records for patent WO2022081807 (THE BROAD INSTITUTE, INC., 2022)

What was measured:
[1] = molecular target: T1, Histone acetyltransferase KAT6A [507-778] (Human, UniProt Q92794); assay: Kat6a Activity Assay
T1 construct: 507-778

[2] = molecular target: Histone acetyltransferase KAT6B (Human, UniProt Q8WYB5); assay: Kat6b Activity Assay
Experimental: In this case 50 nl DMSO were used instead of compounds. […] IC50 values were determined by regression analysis based on a 4 parameter equation (minimum, maximum, ICM, Hill; Y = Max + (Min - Max) / (1 + (X/ICso) Hill) using the Screener Software (Genedata).

T1 sequence (Q92794 whole entry): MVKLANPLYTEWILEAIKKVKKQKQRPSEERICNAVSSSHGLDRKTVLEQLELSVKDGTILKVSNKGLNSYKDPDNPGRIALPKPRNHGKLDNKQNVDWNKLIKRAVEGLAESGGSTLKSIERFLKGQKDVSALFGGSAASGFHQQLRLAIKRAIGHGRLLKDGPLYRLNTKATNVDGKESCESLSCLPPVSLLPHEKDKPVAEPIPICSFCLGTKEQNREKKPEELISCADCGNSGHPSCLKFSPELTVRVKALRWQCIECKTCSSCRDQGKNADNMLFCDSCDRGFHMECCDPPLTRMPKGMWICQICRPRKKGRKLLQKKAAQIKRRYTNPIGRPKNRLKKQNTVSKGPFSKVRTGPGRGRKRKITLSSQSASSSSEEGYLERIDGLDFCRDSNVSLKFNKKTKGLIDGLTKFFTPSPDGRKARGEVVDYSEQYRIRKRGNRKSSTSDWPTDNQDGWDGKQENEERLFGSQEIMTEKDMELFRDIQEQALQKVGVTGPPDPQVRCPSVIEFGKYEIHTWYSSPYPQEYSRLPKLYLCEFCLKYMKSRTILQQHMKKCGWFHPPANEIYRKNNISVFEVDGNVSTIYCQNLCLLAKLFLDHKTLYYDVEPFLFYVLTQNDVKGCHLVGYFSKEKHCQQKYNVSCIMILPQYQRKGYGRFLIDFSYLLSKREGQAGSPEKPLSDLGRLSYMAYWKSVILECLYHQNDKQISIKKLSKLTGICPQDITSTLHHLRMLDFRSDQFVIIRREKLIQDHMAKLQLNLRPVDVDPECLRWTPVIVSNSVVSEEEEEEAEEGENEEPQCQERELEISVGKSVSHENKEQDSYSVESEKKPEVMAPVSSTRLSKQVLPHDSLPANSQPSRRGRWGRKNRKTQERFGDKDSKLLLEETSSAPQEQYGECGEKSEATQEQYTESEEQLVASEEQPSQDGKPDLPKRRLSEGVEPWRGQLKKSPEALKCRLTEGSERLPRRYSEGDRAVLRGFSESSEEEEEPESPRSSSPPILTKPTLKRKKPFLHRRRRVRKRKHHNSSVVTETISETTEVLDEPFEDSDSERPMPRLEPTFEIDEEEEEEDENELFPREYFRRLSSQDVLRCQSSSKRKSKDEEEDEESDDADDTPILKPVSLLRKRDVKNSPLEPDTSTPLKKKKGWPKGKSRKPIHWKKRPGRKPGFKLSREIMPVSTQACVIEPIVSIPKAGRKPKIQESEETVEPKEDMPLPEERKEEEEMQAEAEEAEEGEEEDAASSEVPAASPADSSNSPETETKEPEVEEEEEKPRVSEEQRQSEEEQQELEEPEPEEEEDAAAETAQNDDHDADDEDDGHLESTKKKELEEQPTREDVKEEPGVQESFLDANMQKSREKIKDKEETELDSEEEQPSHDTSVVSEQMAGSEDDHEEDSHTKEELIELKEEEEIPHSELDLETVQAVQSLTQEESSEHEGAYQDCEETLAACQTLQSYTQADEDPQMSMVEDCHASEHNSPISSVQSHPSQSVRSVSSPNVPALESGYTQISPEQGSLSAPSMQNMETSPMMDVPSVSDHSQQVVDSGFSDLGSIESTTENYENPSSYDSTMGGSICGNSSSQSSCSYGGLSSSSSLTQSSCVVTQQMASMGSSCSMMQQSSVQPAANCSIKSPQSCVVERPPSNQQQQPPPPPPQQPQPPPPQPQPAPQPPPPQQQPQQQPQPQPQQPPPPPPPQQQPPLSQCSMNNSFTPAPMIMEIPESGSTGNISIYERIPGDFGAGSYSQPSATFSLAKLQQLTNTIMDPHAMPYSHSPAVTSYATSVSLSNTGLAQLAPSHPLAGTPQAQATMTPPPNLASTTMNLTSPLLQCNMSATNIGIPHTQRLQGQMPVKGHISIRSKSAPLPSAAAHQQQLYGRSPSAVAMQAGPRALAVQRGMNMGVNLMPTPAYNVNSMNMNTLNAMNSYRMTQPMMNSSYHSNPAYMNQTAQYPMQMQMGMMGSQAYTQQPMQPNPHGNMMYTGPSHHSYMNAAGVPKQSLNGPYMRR
Chain of Histone acetyltransferase KAT6B (Q8WYB5 whole entry): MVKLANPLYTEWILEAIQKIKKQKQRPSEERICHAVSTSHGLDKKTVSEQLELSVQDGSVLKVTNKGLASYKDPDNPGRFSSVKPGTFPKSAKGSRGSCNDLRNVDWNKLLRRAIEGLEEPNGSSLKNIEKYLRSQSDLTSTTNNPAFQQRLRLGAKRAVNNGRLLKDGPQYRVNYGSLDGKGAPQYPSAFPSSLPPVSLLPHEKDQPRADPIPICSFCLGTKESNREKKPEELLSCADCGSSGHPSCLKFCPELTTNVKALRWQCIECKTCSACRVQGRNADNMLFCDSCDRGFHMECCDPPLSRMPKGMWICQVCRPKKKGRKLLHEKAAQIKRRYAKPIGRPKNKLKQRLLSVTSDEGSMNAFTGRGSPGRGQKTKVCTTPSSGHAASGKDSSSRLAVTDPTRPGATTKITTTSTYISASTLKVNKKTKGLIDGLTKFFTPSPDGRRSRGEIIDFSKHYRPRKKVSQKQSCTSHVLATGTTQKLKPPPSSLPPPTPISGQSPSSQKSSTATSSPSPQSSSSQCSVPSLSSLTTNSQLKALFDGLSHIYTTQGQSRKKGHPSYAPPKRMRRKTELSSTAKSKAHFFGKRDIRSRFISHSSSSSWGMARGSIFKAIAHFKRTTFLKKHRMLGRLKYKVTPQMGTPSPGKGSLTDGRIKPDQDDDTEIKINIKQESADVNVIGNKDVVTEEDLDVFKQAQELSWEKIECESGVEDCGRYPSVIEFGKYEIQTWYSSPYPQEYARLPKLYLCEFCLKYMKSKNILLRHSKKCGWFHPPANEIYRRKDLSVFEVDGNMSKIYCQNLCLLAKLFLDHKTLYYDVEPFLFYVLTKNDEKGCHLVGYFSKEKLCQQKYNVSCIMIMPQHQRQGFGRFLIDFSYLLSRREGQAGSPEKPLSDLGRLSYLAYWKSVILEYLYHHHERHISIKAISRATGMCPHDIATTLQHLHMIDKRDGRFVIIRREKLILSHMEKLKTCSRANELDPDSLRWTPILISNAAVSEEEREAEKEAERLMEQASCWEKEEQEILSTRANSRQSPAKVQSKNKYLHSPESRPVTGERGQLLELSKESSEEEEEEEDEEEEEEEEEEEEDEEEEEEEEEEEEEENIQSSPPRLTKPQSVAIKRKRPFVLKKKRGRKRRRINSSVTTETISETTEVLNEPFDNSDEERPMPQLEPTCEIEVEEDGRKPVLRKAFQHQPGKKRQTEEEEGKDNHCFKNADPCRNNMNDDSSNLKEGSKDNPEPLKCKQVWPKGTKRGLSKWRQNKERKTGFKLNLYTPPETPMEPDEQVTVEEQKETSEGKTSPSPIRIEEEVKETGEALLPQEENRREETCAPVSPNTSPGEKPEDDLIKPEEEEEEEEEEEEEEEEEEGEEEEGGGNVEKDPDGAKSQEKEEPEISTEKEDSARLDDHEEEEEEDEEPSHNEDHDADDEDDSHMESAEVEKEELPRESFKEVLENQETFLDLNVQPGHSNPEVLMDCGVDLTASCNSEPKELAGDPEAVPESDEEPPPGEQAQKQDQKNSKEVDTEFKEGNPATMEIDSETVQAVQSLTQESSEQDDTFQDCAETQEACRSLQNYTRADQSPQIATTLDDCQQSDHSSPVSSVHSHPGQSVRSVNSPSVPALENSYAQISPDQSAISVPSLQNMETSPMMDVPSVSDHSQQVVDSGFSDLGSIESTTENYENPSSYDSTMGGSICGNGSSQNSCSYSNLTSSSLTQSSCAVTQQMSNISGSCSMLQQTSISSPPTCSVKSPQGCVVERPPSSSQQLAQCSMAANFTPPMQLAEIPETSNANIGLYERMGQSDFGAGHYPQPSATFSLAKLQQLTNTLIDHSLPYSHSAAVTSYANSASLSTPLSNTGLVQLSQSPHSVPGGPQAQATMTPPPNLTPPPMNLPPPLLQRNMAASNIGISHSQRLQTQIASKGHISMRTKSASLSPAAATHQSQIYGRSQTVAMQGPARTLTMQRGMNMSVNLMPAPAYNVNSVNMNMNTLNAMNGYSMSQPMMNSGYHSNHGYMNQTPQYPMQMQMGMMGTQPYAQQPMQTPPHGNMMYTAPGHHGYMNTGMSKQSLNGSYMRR

| Compound | IC50 [1] | IC50 [2] |
| --- | --- | --- |
| CC(Oc1ccccc1S(=O)(=O)NC(=O)c1cc2c(F)cc(N3CCC3)cc2o1)C(F)(F)F (racemic) [WO2022081807, Example 13] | 19 nM |  |
| CC(C)c1ccc(OCC2CC2(F)F)c(S(=O)(=O)NC(=O)c2cc3c(F)cc(N4CCC4)cc3o2)c1 (racemic) [WO2022081807, Example 231] |  | 29 nM |
| CCOc1cccc(Oc2ccccc2)c1S(=O)(=O)NC(=O)c1cc2c(F)cc(N3CCC3)cc2o1 [WO2022081807, Example 7] | 4.15 nM |  |
| Cc1ccc(OCC2CCCC2)c(S(=O)(=O)NC(=O)c2cc3c(F)cc(N4CCC4)cc3o2)c1 [WO2022081807, Example 9] | 21 nM |  |
| CN(C)c1ccccc1S(=O)(=O)NC(=O)c1cc2c(F)cc(N3CCC3)cc2o1 [WO2022081807, Example 11] | 7.52 nM |  |
| C[C@@H](Oc1ccccc1S(=O)(=O)NC(=O)c1cc2c(F)cc(N3CCC3)cc2o1)C(F)(F)F [WO2022081807, Example 14] | 28 nM |  |
| C[C@H](Oc1ccccc1S(=O)(=O)NC(=O)c1cc2c(F)cc(N3CCC3)cc2o1)C(F)(F)F [WO2022081807, Example 15] | 47 nM |  |
| O=C(NS(=O)(=O)c1cccc2c1OCC2)c1cc2c(F)cc(N3CCC3)cc2o1 [WO2022081807, Example 18] | 24 nM |  |
| CCOc1cccc(C(C)C)c1S(=O)(=O)NC(=O)c1cc2c(F)cc(N3CCC3)cc2o1 [WO2022081807, Example 23] | 29 nM |  |
| CC(C)c1ccc(C(C)C)c(S(=O)(=O)NC(=O)c2cc3c(F)cc(N4CCC4)cc3o2)c1 [WO2022081807, Example 30] | 25 nM |  |
| CCc1cc(S(=O)(=O)NC(=O)c2cc3c(F)cc(N4CCC4)cc3o2)c(C)s1 [WO2022081807, Example 36] | 367 nM |  |
| CC(C)Oc1cccc(Br)c1S(=O)(=O)NC(=O)c1cc2c(F)cc(N3CCC3)cc2o1 [WO2022081807, Example 39] | 79 nM |  |
| Cc1cccc(C(C)C)c1S(=O)(=O)NC(=O)c1cc2c(F)cc(N3CCC3)cc2o1 [WO2022081807, Example 53] | 70 nM |  |
| CN(C(=O)Oc1ccccc1S(=O)(=O)NC(=O)c1cc2c(F)cc(N3CCC3)cc2o1)c1ccccc1 [WO2022081807, Example 62] | 196 nM |  |
| CC(C)c1cccnc1S(=O)(=O)NC(=O)c1cc2c(F)cc(N3CCC3)cc2o1 [WO2022081807, Example 79] |  | 14 nM |
| O=C(NS(=O)(=O)c1cc(Br)ccc1OC(F)(F)F)c1cc2c(F)cc(N3CCC3)cc2o1 [WO2022081807, Example 82] | 19 nM |  |
| O=C(NS(=O)(=O)c1c(NCC(F)F)cccc1C(F)(F)F)c1cc2c(F)cc(N3CCC3)cc2o1 [WO2022081807, Example 92] | 464 nM |  |
| CCOc1ccc(C(C)(C)C)cc1S(=O)(=O)NC(=O)c1cc2c(F)cc(N3CC(F)C3)cc2o1 [WO2022081807, Example 113] |  | 12 nM |
| CCOc1ccccc1S(=O)(=O)NC(=O)c1cc2c(F)cc(N3CC(C)(F)C3)cc2o1 [WO2022081807, Example 116] | 2290 nM |  |
| COc1ccc(C(C)C)cc1S(=O)(=O)NC(=O)c1cc2c(F)cc(N3CCC3)cc2o1 [WO2022081807, Example 128] | 8.15 nM | 15 nM |
| Cc1ccc2cccc(S(=O)(=O)NC(=O)c3cc4c(F)cc(N5CCC5)cc4o3)c2n1 [WO2022081807, Example 130] | 14 nM | 20 nM |
| O=C(NS(=O)(=O)c1ccccc1OC1CC1)c1cc2c(F)cc(N3CCC3)cc2o1 [WO2022081807, Example 131] | 23 nM |  |
| Cc1ccc(OC(C)C)c(S(=O)(=O)NC(=O)c2cc3c(F)cc(N4CCC4)cc3o2)c1 [WO2022081807, Example 134] | 18 nM |  |

| Compound | IC50 [1] | IC50 [2] |
| --- | --- | --- |
| CCOc1ccc(Br)cc1S(=O)(=O)NC(=O)c1cc2c(F)cc(N3CCC3)cc2o1 [WO2022081807, Example 135] | 17 nM |  |
| COc1cccc(N2CCOCC2)c1S(=O)(=O)NC(=O)c1cc2c(F)cc(N3CCC3)cc2o1 [WO2022081807, Example 137] | 26 nM |  |
| COc1ccc(Br)cc1S(=O)(=O)NC(=O)c1cc2c(F)cc(N3CCC3)cc2o1 [WO2022081807, Example 139] | 27 nM |  |
| O=C(NS(=O)(=O)c1cccc2c1OC(F)(F)C(F)(F)O2)c1cc2c(F)cc(N3CCC3)cc2o1 [WO2022081807, Example 140] | 28 nM |  |
| Cc1ccc2cccc(S(=O)(=O)NC(=O)c3cc4c(F)cc(N5CC(F)C5)cc4o3)c2n1 [WO2022081807, Example 152] |  | 20 nM |
| CCOc1ccc(CC)cc1S(=O)(=O)NC(=O)c1cc2c(F)cc(N3CC(F)C3)cc2o1 [WO2022081807, Example 153] | 11 nM |  |
| O=C(NS(=O)(=O)c1cccc2ccc(Cl)nc12)c1cc2c(F)cc(N3CC(F)C3)cc2o1 [WO2022081807, Example 154] | 13 nM |  |
| COc1ccc(C)cc1S(=O)(=O)NC(=O)c1cc2c(F)cc(N3CCC3)cc2o1 [WO2022081807, Example 156] | 20 nM |  |
| COc1ccc(C)cc1S(=O)(=O)NC(=O)c1cc2c(F)cc(N3CC(F)C3)cc2o1 [WO2022081807, Example 158] | 26 nM |  |
| CCS(=O)(=O)c1nc2ccccn2c1S(=O)(=O)NC(=O)c1cc2c(F)cc(N3CC(F)C3)cc2o1 [WO2022081807, Example 167] | 517 nM |  |
| CCOc1ccccc1S(=O)(=O)NC(=O)c1cc2c(F)cc(N3CC[C@@H]3C(N)=O)cc2o1 [WO2022081807, Example 169] | 11 nM |  |
| O=C(NS(=O)(=O)c1cc(Br)cc2c1OCC2)c1cc2c(F)cc(N3CCC3)cc2o1 [WO2022081807, Example 177] | 21 nM |  |
| Cc1ccc(S(=O)(=O)NC(=O)c2cc3c(F)cc(N4CCC4)cc3o2)c2ccncc12 [WO2022081807, Example 191] | 310 nM |  |
| COc1ccc(C2=CCN(C(=O)OC(C)(C)C)CC2)cc1S(=O)(=O)NC(=O)c1cc2c(F)cc(N3CCC3)cc2o1 [WO2022081807, Example 197] | 6.06 nM |  |
| COc1ccc(-c2cccc(F)c2)cc1S(=O)(=O)NC(=O)c1cc2c(F)cc(N3CCC3)cc2o1 [WO2022081807, Example 198] | 12 nM |  |
| COc1ccc(N2CCCC2c2ccccc2)cc1S(=O)(=O)NC(=O)c1cc2c(F)cc(N3CCC3)cc2o1 (stereo not drawn) [WO2022081807, Example 201] | 0.81 nM |  |
| CCOc1ccc(C(F)(F)F)cc1S(=O)(=O)NC(=O)c1cc2c(F)cc(N3CCC3)cc2o1 [WO2022081807, Example 209] | 27 nM |  |
| CC(C)c1ccc(OCc2ccccc2)c(S(=O)(=O)NC(=O)c2cc3c(F)cc(N4CCC4)cc3o2)c1 [WO2022081807, Example 213] |  | 15 nM |
| CC(C)c1ccc(OCC2CC2)c(S(=O)(=O)NC(=O)c2cc3c(F)cc(N4CCC4)cc3o2)c1 [WO2022081807, Example 214] |  | 20 nM |
| CC1(C)CCN1c1cc(F)c2cc(C(=O)NS(=O)(=O)c3ccccc3-c3ccccc3)oc2c1 [WO2022081807, Example 217] | 1190 nM |  |
| Cc1ccc2cccc(S(=O)(=O)NC(=O)c3cc4c(F)cc(N5CCC5C)cc4o3)c2n1 (stereo not drawn) [WO2022081807, Example 221] | 62 nM |  |
| CC(C)(C)c1ccc(OC2CCC2)c(S(=O)(=O)NC(=O)c2cc3c(F)cc(N4CCC4)cc3o2)c1 [WO2022081807, Example 228] |  | 13 nM |
| CC(C)Oc1ccc(C(C)(C)C)cc1S(=O)(=O)NC(=O)c1cc2c(F)cc(N3CCC3)cc2o1 [WO2022081807, Example 229] |  | 28 nM |
